ChEMBL document CHEMBL5137093, “Improving Drug Delivery While Tailoring Prodrug Activation to Modulate Cmax and Cmin by Optimization of (Carbonyl)oxyalkyl Linker-Based Prodrugs of Atazanavir” (J Med Chem, 2022)
Values after ≈ are worked out from the molar mass of the structure shown.

Experiments:
[1] = Relative Cmax ratio of Atazanavir in Sprague-Dawley rat at 3 ml/kg,po measured upto 24 hrs by UPLC-MS/MS analysis; assay type: ADME; conditions: in vivo
[2] = Aqueous stability of the compound in HCL at pH 1 assessed as compound half life measured after 24 hrs by UPLC analysis; assay type: physicochemical; conditions: for half-life: aqueous HCl, pH 1; for t1/2: buffer, pH 1, 24 h
[3] = Ratio of Cmax/Cmin of Atazanavir in Sprague-Dawley rat at 3 ml/kg,po measured after 24 hrs by UPLC-MS/MS analysis; assay type: ADME; conditions: in vivo
[4] = Aqueous stability of the compound in phosphate buffer at pH 6.5 assessed as compound half life measured after 24 hrs by UPLC analysis; assay type: physicochemical; conditions: for t1/2: buffer, pH 6.5, 24 h, 24 h; for half-life: phosphate buffer, pH 6.5
[5] = Aqueous solubility of compound at pH 1 by UPLC analysis; assay type: physicochemical
[6] = Cmax in Sprague-Dawley rat at 3 ml/kg,po measured upto 24 hrs by UPLC-MS/MS analysis; assay type: ADME; set-up: dose 3 ml/kg, time < 24 hrs, route po; conditions: in vivo
[7] = Aqueous solubility of compound at pH 6.5 by UPLC analysis; assay type: physicochemical
[8] = Tmax in Sprague-Dawley rat at 3 ml/kg,po measured upto 24 hrs by UPLC-MS/MS analysis; assay type: ADME; conditions: in vivo
[9] = Relative AUC ratio of Atazanavir in Sprague-Dawley rat at 3 ml/kg,po measured upto 24 hrs by UPLC-MS/MS analysis; assay type: ADME; conditions: in vivo
[10] = AUClast in Sprague-Dawley rat at 3 ml/kg,po measured upto 24 hrs by UPLC-MS/MS analysis; assay type: ADME; set-up: time < 24 hrs, dose 3 ml/kg, route po; conditions: in vivo; for AUClast: 24 h; for AUC(0-t) at 24 h: Sprague-Dawley, 3 ml/kg
[11] = Fold ratio of total AUC of Atazanavir in Sprague-Dawley rat at 3 ml/kg,po measured upto 24 hrs by UPLC-MS/MS analysis; assay type: ADME; conditions: in vivo
[12] = Aqueous stability of the compound in acetate buffer at pH 4 assessed as compound half life measured after 24 hrs by UPLC analysis; assay type: physicochemical; conditions: for half-life: acetate buffer, pH 4; for t1/2: buffer, pH 4, 24 h, 24 h
[13] = Aqueous solubility of compound at pH 4 by UPLC analysis; assay type: physicochemical
[14] = Ratio of AUC of Atazanavir in Sprague-Dawley rat at 3 ml/kg,po measured upto 24 hrs by UPLC-MS/MS analysis; assay type: ADME; conditions: in vivo
[15] = aqueous medium, read-out: solubility

Structure (SMILES) | Ratio [1] | half-life [2] [h] | Ratio [3] | t1/2 [4] [h] | solubility [5, 15] [µg/mL] | Cmax ([6]; 24 h) [nM] | Tmax ([8]; Sprague-Dawley, read-out: Tmax) [h] | Ratio [9] | AUClast [10] [µM·h] | Ratio [11] | half-life [12] [h] | solubility [13, 15] [µg/mL] | Ratio [14] | solubility ([5]; buffer) [µg/mL] | solubility ([7]; buffer) [µg/mL] | solubility ([13]; buffer) [µg/mL] | half-life [4] [h] | Cmax ([6]; Sprague-Dawley, 3 ml/kg) [nM] | other results
COC(=O)N[C@H](C(=O)N[C@@H](Cc1ccccc1)[C@H](CN(Cc1ccc(-c2ccccn2)cc1)NC(=O)[C@@H](NC(=O)OC)C(C)(C)C)OC(=O)OC(OC(=O)[C@@H](N)C(C)C)C(C)(C)C)C(C)(C)C (mixture of isomers) | 5.8 | > 500 | 235.5 | 65.4 | > 800 | 670 | 0.4 | 10.4 | 1.057 | 13.2 | > 500 | > 870 | 0.26 | – | – | – | – | – | solubility [7, 15]: < 1 µg/mL
COC(=O)N[C@H](C(=O)N[C@@H](Cc1ccccc1)[C@H](CN(Cc1ccc(-c2ccccn2)cc1)NC(=O)[C@@H](NC(=O)OC)C(C)(C)C)OC(=O)OC(OC(=O)[C@@H](NC(=O)[C@@H](N)C(C)C)C(C)C)C(C)C)C(C)(C)C (stereo in doubt; 6f) | 2.7 | – | 1414 | 94 | – | 235 | – | 3.7 | 0.208 | 4.2 | – | – | 0.15 | > 1000 | 8 (≈ 7.85 µM) | > 1400 | – | – | t1/2 [12]: 376.3 h
COC(=O)N[C@H](C(=O)N[C@@H](Cc1ccccc1)[C@H](CN(Cc1ccc(-c2ccccn2)cc1)NC(=O)[C@@H](NC(=O)OC)C(C)(C)C)OC(=O)OC(OC(=O)CCN)C(C)C)C(C)(C)C (stereo in doubt; 3z) | 6.9 | > 500 | 1309.3 | – | > 1700 | – | 1.3 | 8.7 | – | 8.7 | 334 | > 1500 | 0 | – | – | – | 10.1 | 6 | AUC(0-t) at 24 h [10]: 0.007 µM·h
CN[C@H](C(=O)OC(OC(=O)O[C@@H](CN(Cc1ccc(-c2ccccn2)cc1)NC(=O)[C@@H](NC(=O)OC)C(C)(C)C)[C@H](Cc1ccccc1)NC(=O)[C@@H](NC(=O)OC)C(C)(C)C)C(C)C)C(C)C (stereo in doubt; 5e) | 4.7 | > 500 | 364.4 | – | > 2500 | – | – | 5.3 | 0.262 | 6 | 376 | > 1400 | 0.13 | – | – | – | 4.7 | 342 | Tmax ([8]; po, 24 h): 0.3 h
COC(=O)N[C@H](C(=O)N[C@@H](Cc1ccccc1)[C@H](CN(Cc1ccc(-c2ccccn2)cc1)NC(=O)[C@@H](NC(=O)OC)C(C)(C)C)OC(=O)OC(OC(=O)[C@@H](N)C(C)C)C1CCCCC1)C(C)(C)C (stereo in doubt; 4n) | 1.3 | > 500 | – | 27.4 | > 1300 | 991 | 0.5 | 1.5 | 1.454 | 5.3 | 334 | > 1400 | 2.47 | – | – | – | – | – | solubility [7, 15]: < 1 µg/mL
COC(=O)N[C@H](C(=O)N[C@@H](Cc1ccccc1)[C@H](CN(Cc1ccc(-c2ccccn2)cc1)NC(=O)[C@@H](NC(=O)OC)C(C)(C)C)OC(=O)OC(OC(=O)[C@H](N)C(C)C)C(C)C)C(C)(C)C (stereo in doubt; 5i) | 5.3 | > 500 | 389.4 | – | > 1300 | 19 | 0.4 | 5.6 | 0.015 | 5.6 | 376 | > 1800 | 0.01 | – | – | – | 16.3 | – | –
COC(=O)N[C@H](C(=O)N[C@@H](Cc1ccccc1)[C@H](CN(Cc1ccc(-c2ccccn2)cc1)NC(=O)[C@@H](NC(=O)OC)C(C)(C)C)OC(=O)OC(OC(=O)[C@@H](N)Cc1ccccc1)C(C)C)C(C)(C)C (stereo in doubt; 3v) | 0.5 | 334 | – | – | > 1520 | – | – | 0.3 | – | 0.3 | 100 | > 840 | 0 | – | < 1 | – | 10.7 | – | –
COC(=O)N[C@H](C(=O)N[C@@H](Cc1ccccc1)[C@H](CN(Cc1ccc(-c2ccccn2)cc1)NC(=O)[C@@H](NC(=O)OC)C(C)(C)C)OC(=O)OC(OC(=O)C1(N)CC1)C(C)C)C(C)(C)C (stereo in doubt; 3x) | 1.4 | > 500 | – | – | > 1200 | – | 0.3 | 1.7 | 1.313 | 5.1 | > 500 | – | 2.07 | – | < 1.5 | > 950 | > 500 | 1260 | –
COC(=O)N[C@H](C(=O)N[C@@H](Cc1ccccc1)[C@H](CN(Cc1ccc(-c2ccccn2)cc1)NC(=O)[C@@H](NC(=O)OC)C(C)(C)C)OC(=O)OC(OC(=O)[C@@H](N)Cc1ccccc1)C(C)C)C(C)(C)C (stereo in doubt; 3w) | 7.8 | – | – | 12.7 | – | – | 0.3 | 3.7 | – | 3.8 | – | – | 0.01 | > 1670 | > 890 | > 1630 | – | 50 | t1/2 [2]: 334.3 h; AUC(0-t) at 24 h [10]: 0.018 µM·h; t1/2 [12]: 158.4 h
COC(=O)N[C@H](C(=O)N[C@@H](Cc1ccccc1)[C@H](CN(Cc1ccc(-c2ccccn2)cc1)NC(=O)[C@@H](NC(=O)OC)C(C)(C)C)OC(=O)OC(OC(=O)[C@H](C)N)C(C)C)C(C)(C)C (stereo in doubt; 3q) | 2.3 | – | 1505 | 2.7 | – | 1900 | – | 1.8 | 2.129 | 7.3 | – | – | 3.09 | > 1700 | – | > 1800 | – | – | t1/2 ([2]; 24 h): 125.4 h; Tmax ([8]; po, 24 h): 0.3 h; t1/2 [12]: 30.4 h
COC(=O)N[C@H](C(=O)N[C@@H](Cc1ccccc1)[C@H](CN(Cc1ccc(-c2ccccn2)cc1)NC(=O)[C@@H](NC(=O)OC)C(C)(C)C)OC(=O)OC(OC(=O)C1(N)CC1)C(C)C)C(C)(C)C (stereo in doubt; 3y) | 2.1 | – | 31.8 | – | – | 835 | – | 9.5 | 4.874 | 22.2 | – | – | 1.34 | > 1800 | 28 (≈ 31 µM) | > 2100 | – | – | Tmax ([8]; po, 24 h): 0.4 h
